{"source": "patent US6416965B2", "about": "“Screening methods for presqualene disphosphate analogs” (Brigham and Women's Hospital, priority 1997, dated 2002)", "key": {"[1]": {"tested_on": "electroporated neutrophils", "experiment": "Superoxide anion generation (NADPH oxidase activity) by electroporated neutrophils", "type": "cell-based, human", "description": "To test the impact of compounds VI and VIII on neutrophil responses, the isolated lipids were introduced into neutrophils by electroporation prior to determining NADPH oxidase activity. […] Prenyl cysteine analogues can disrupt G-protein interaction with activated FMLP receptors (Scheer, A. & Gierschik, P. Biochemistry. 34,4952-4961 (1995), the teachings of which are incorporated herein by reference); therefore to determine compound VI's level of action, neutrophil superoxide anion generation was examined in the presence of phorbol 12-myristate 13-acetate (PMA), a potent trigger for O2- production which bypasses cell surface receptors to stimulate protein kinase C and subsequent NADPH assembly (see for example, Baggiolini, M., Boulay, F., Badwey, J. A. & Curnutte, J. T. FASEB J. 7, […] (1993); FIG. 3c).\nAfter electroporation, cells in cytochrome c (0.7 mg/ml) were exposed (10 min, 37° C.) to PMA (10^−7 M), FMLP (10^−7 M) plus cytochalasin b (15 μg/ml), compound VI (1 μM) or compound VIII (1 μM) and supernatants monitored at 550 nm. Values represent the mean±SEM for n≧4.\n(§1) Neutrophils (10^7/500 μl) were electroporated (1.65 kV/cm, 250 μF, Ω∞, Invitrogen Electroporator VI) at 0° C. in the presence of 10−^9-10−^6 M compound VI, VIII, FDP, FMP, squalene or vehicle (ethanol 0.2%). After electroporation, cells, in cytochrome c (0.7 mg/ml), were exposed (10 minutes, 37° C.) to either cytochalasin b (5 μg/mL) and FMLP (10^−7 M)(a) or PMA ((10^−7 M)(b) and supernatants monitored at […]. Electroporation gave a 49.9% reduction in FMLP-stimulated NADPH oxidase compared to naive cells. Values (FIGS. 4a and 4b) represent the mean±SEM for n≧3, d≧6. For adhesion (FIGS. 4c and 4d), changes in light transmittance were monitored (as in Fiore, S., Nicolaou, K. C., Caulfield, T., Kataoka, H. & Serhan, C. N. Biochem. J. 266, 25-31 (1990), the teachings of which are incorporated herein by reference) after addition of compounds VI, VIII (1.6 μM) or vehicle (0.5 min) and FMLP (0.5-5 μM) (2.5 min). Cell viability remained>99%. Values represent the mean±SEM for n=3, d=9. 1,4,5-inositol-triphosphate levels were determined (Amersham) in fresh PMN (10^7 cells) exposed (5 minutes, 37° C.) to compound VI, compound VIII (1 μM) or vehicle and stimulated with FMLP (10^−7M, 37° C.) (as in FIG. 4e). % Inhibition after 10 second exposure to FMLP is reported as mean±SEM for n=4, d≧8. *p <0.05 in Student's paired t-test compared with control, while “NS” indicates no significant change compared to incubations in the presence of vehicle (ethanol 0.2%) alone. Stereochemistry of PSDP and PSMP (FIG. 4f) were assigned by routine methods (Poulter, C. D. and Rilling, H. C. Acc. Chem. Res. 11, 307-313, (1978), the teachings of which are hereby incorporated by reference)."}, "human neutrophils": {"tested_on": "human neutrophils", "experiment": "FMLP-stimulated 1,4,5-inositol triphosphate (IP3) formation as surrogate for phospholipase C activity", "type": "cell-based", "details": "nM-μM amounts", "experimental": "as §1\nIn addition to PLD, phospholipase C plays a critical role in intracellular signaling via the hydrolysis of inositol lipids to diacyl glyceride (DAG) and inositol trisphosphate (IP3) to effect a cascade of cellular events in response to pro-inflammatory stimuli. DAG activates protein kinases and is converted, in part, to phosphatidic acid by DAG kinase. Therefore, PLC together with DAG kinase provides a second major source of phosphatidic acid in human neutrophils (Agwu, DE, et al., Journal of Clinical Investigation 1991; 88:531). […] To this end, the impact of PSDP on fMLP-stimulated IP3 formation as a surrogate for phospholipase C activity was examined (FIG. 4e).\nAmersham's D-myo-inositol 1,4,5-trisphosphate (IP3) [^3H] assay was used for this procedure (Amersham code TRK 1000, including product assay, the contents of which are incorporated herein by reference). The assay is based on procedures developed by Takata S. et al. J. Clin. Invest. 93:499 (1994) and Dillon S. B. et al. J. Biol. Chem. 262:11546 (1987), the contents of which are incorporated herein by reference in their entirety. [drawing 24] […]"}, "neutrophils": {"tested_on": "neutrophils", "experiment": "Neutrophil homotypic adhesion (aggregation, light transmittance)", "type": "cell-based, human", "experimental": "as §1"}, "neutrophil sonicates": {"tested_on": "neutrophil sonicates", "experiment": "Superoxide anion generation by neutrophil sonicates (post-nuclear supernatants, cytochrome c reduction)", "type": "biochemical, human", "details": "arachidonic acid C20:4 75 μM, phosphatitic acid C10:0 100 μM", "experimental": "Neutrophil lipids were saponified (10% KOH in methanol, 37° C., 30 min), extracted (Van Dessel, G. A. F., Lagrou, A. R. Hilderson, H. J. J. & Dierick, W. S. H. In: CRC Handbook of Chromatography (eds Mukherjee, K. D., Weber, N. & Sherma, J.) 321-337 (CRC Press, Boca Raton, 1993)) and separated by CC4 silica (1 gm/10^8 PMN) column chromatography as in FIG. 1f. […] After 2 min (37° C.) in a thermal-jacketed cuvette, β-NAPH (200 μM) was added to initiate reactions and absorbance (550 nm) was monitored at 15 second intervals. […]\nTo determine O2- production (FIGS. 1a-c), post-nuclear supernatants from neutrophils after sonication (0.1-0.5 mg protein/ml) (as generally described in Bromberg, Y. & Pick, E. Cell. Immunol. 88, 213-221 (1984), the teachings of which are incorporated herein by reference), 100 μM phosphatitic acid (C10:0, Avanti Polar Lipids, Inc.) and lipid extracts (0.1% ethanol) were added to cytochrome c (60 μM), sucrose (170 mM), EGTA (1 mM), FAD (10 μM), NaN3 (2 mM) and either superoxide dismutase (30 ug/ml) or H20 at 0° C. […] After 2 min (37° C.) in a thermal-jacketed cuvette, B-NADPH (200 μM) was added to initiate reactions and absorbance (550 nm) was monitored at 15 second intervals or following termination (10 minutes, 0° C.). […]"}, "PMN": {"tested_on": "PMN", "experiment": "32PO4 incorporation into non-saponifiable lipids of PMN labeled with γ-32PO4-ATP", "type": "cell-based, human", "details": "GM-CSF 25 ng/ml, 60 min, 37° C.; relative to cells without agonist", "experimental": "To determine FMLP (10−^7 M)-induced changes in compound VI and VIII mass (inset), radioactive compounds were eluted and inorganic phosphorus levels were measured. In addition, PMN labeled with γ-^32PO4-ATP were incubated in the presence or absence of GM-CSF (25 ng/ml, 60 min, 37° C.)(b) with ^32P content quantitated as above. Values represent the mean±SEM for duplicate determinations from at least two separate PMN. The percent increase after exposure to GM-CSF is relative to parallel incubations with cells in the absence of agonist. **p<0.0005 and * p<0.03 by Student's paired t-test."}}}
{"molecule": "CC(C)=CCC/C(C)=C/CC/C(C)=C/C1C(COP(=O)(O)O)C1(C)CC/C=C(\\C)CCC=C(C)C", "note": "(stereo in doubt) [Compound VIII, presqualene monophosphate]", "values": [{"measurement": "influence on PMA-stimulated O2- production", "setting": "[1]; PMA 10^-7 M, electroporated neutrophils", "value": "not significantly influenced"}, {"measurement": "inhibition of neutrophil superoxide anion generation", "setting": "[1]; nM-μM amounts", "value": "not"}, {"measurement": "FMLP-triggered O2- production in the presence of the compound", "setting": "[1]; nM-μM quantities, electroporated neutrophils", "value": "unaltered"}, {"measurement": "stimulation of O2- production by the compound alone", "setting": "[1]; no agonist, 1 μM (FIG. 3c)", "value": "neither compound VI nor VIII alone stimulated"}, {"measurement": "inhibition of 1,4,5-inositol-triphosphate formation", "setting": "human neutrophils", "value": "not"}, {"measurement": "stimulation of adhesion by the compound alone", "setting": "neutrophils; no agonist", "value": "neither compound VI nor VIII alone stimulated"}, {"measurement": "inhibition of FMLP-stimulated homotypic adhesion", "setting": "neutrophils; μM levels", "value": "not"}]}
{"molecule": "CCCCC/C=C\\C/C=C\\C/C=C\\C/C=C\\CCCC(=O)O", "note": "[arachidonic acid]", "values": [{"measurement": "rate of superoxide anion generation (O2- production)", "setting": "neutrophil sonicates", "value": 1.38, "unit": "nmoles/mg protein/min"}]}
{"molecule": "CCCCCCCCCC(=O)OC[C@H](COP(=O)(O)O)OC(=O)CCCCCCCCC", "note": "[phosphatitic acid]", "values": [{"measurement": "rate of superoxide anion generation (O2- production)", "setting": "neutrophil sonicates", "value": 1.34, "unit": "nmoles/mg protein/min"}]}
{"molecule": "GM-CSF: granulocyte/monocyte-colony stimulating factor, cytokine", "values": [{"measurement": "increase of 32PO4 incorporation into compound VI", "setting": "PMN", "value": 45.0, "unit": "%"}, {"measurement": "increase of 32PO4 incorporation into compound VIII", "setting": "PMN", "value": 84.1, "unit": "%"}]}
